Measured values: patent publication US20250161196A1, “Antioxidant Compositions” (THE BOOTS COMPANY PLC, priority 2022, published 2025)

Test: Total Antioxidant Capacity (TAC) assay, Cell Biolabs kit, copper ion reduction, absorbance at 490 nm
Assay type: biochemical
Settings: for Total Antioxidant Capacity (TAC): absorbance 490 nm, triplicate; for TAC of the individual antioxidant agent: Table 1 / FIG. 1, single agent alone
Description: Total antioxidant capacity (TAC) was determined using a kit (Cell Biolabs, Inc) as follows; the test samples were diluted in water and a buffer to reach a final antioxidant agent to buffer ratio ranging from 1:1 to 1:1,000,000. 20 ul of test sample or control (ascorbic acid or green tea) were added to the wells of 96 well plate, followed by 180 μL of 1× Reaction Buffer (provided with the kit). The absorbance of the reaction mix in each well was measured at 490 nm to get an initial reading. 50 μL of the 1× Copper Ion Reagent (provided with the kit) were added to each well to initiate the reaction. The reaction was allowed to carry on for 5 minutes on an orbital shaker and 50 μL of 1× Stop Solution (provided with the kit) added to each well to terminate the reaction. The colour change was assessed using a plate reader at 490 nm.
The stronger the colour change at the end of the reaction, the higher the spectrophotometric value, and the higher the antioxidant capacity of the antioxidant agents.
21 antioxidant compounds were tested in triplicate at antioxidant: buffer ratios ranging from 1:1 to 1:1,000,000. […]

[1] = Antioxidant:Buffer 1:1 (concentration 1)
[2] = Antioxidant:Buffer 1:10 (concentration 0.1)
[3] = Antioxidant:Buffer 1:100 (concentration 0.01)

Row | Compound | Total Antioxidant Capacity (TAC) [1] | Total Antioxidant Capacity (TAC) [2] | Total Antioxidant Capacity (TAC) [3] | TAC of the individual antioxidant agent
1 | COc1cc2c(cc1O)CCC(C)(C)O2 [Dimethylmethylmethoxy chromanol, Dimethylmethoxy chromanol] | 1.839 | 1.807 | 1.824 | 1.671
2 | O=C1O[C@H]([C@@H](O)CO)C(O)=C1O [Ascorbic Acid (Control), Ascorbic Acid, reference compound] | 2.6 | 1.6 | 0.7 | –
3 | COc1cc(/C=C/C(=O)O)ccc1O [Ferulic acid] | 1.911 | 1.808 | 1.991 | 1.583
